Source: ChEMBL document CHEMBL5625209, “Rational design and optimization of acylthioureas as novel potent influenza virus non-nucleoside polymerase inhibitors” (Eur J Med Chem, 2023)
Activity calls are given as the source filed them. The calls are words filed in the database; no cut-off is given here.

Tests used:
Influenza A virus [1] = assay: Antiviral activity against Influenza A virus H1N1 (A/Puerto Rico/8/34) infected in MDCK cells assessed as reduction in NP protein level at 10 uM treated at 1 hr post infection by Western blot analysis; assay type: functional, organism-based
Influenza A virus [2] = assay: Antiviral activity against Influenza A virus H1N1 (A/Puerto Rico/8/34) infected in MDCK cells assessed as reduction in NP viral RNA level at 10 uM treated at 1 hr post infection by qRT-PCR analysis; assay type: functional, organism-based
[3] = Metabolic stability in mouse liver microsomes assessed as half life preincubated for 5 mins followed by NADPH addition and measured upto 45 mins by LC-MS analysis; assay type: ADME, Microsome; conditions: time < 50 min
[4] = Metabolic stability in dog liver microsomes assessed as half life preincubated for 5 mins followed by NADPH addition and measured upto 45 mins by LC-MS analysis; assay type: ADME, Canis lupus familiaris, Microsome; conditions: time < 50 min
[5] = Metabolic stability in dog liver microsomes assessed as hepatic clearance preincubated for 5 mins followed by NADPH addition and measured upto 45 mins by LC-MS analysis; assay type: ADME, Canis lupus familiaris, Microsome; conditions: time < 50 min
[6] = Metabolic stability in mouse liver microsomes assessed as intrinsic clearance preincubated for 5 mins followed by NADPH addition and measured upto 45 mins by LC-MS analysis; assay type: ADME, Microsome; conditions: time < 50 min, read-out: CLH
[7] = Metabolic stability in dog liver microsomes assessed as hepatic extraction ratio preincubated for 5 mins followed by NADPH addition and measured upto 45 mins by LC-MS analysis; assay type: ADME, Canis lupus familiaris, Microsome; conditions: time < 50 min
[8] = Metabolic stability in human liver microsomes assessed as half life preincubated for 5 mins followed by NADPH addition and measured upto 45 mins by LC-MS analysis; assay type: ADME, Microsome; conditions: time < 50 min
[9] = Metabolic stability in human liver microsomes assessed as hepatic clearance preincubated for 5 mins followed by NADPH addition and measured upto 45 mins by LC-MS analysis; assay type: ADME, Microsome; conditions: time < 50 min
[10] = Metabolic stability in human liver microsomes assessed as intrinsic clearance preincubated for 5 mins followed by NADPH addition and measured upto 45 mins by LC-MS analysis; assay type: ADME, Microsome; conditions: time < 50 min, read-out: CLH
[11] = Metabolic stability in human liver microsomes assessed as hepatic extraction ratio preincubated for 5 mins followed by NADPH addition and measured upto 45 mins by LC-MS analysis; assay type: ADME, Microsome; conditions: time < 50 min
[12] = Metabolic stability in mouse liver microsomes assessed as hepatic clearance preincubated for 5 mins followed by NADPH addition and measured upto 45 mins by LC-MS analysis; assay type: ADME, Microsome; conditions: time < 50 min
[13] = Metabolic stability in dog liver microsomes assessed as intrinsic clearance preincubated for 5 mins followed by NADPH addition and measured upto 45 mins by LC-MS analysis; assay type: ADME, Canis lupus familiaris, Microsome; conditions: time < 50 min, read-out: CLH
[14] = Metabolic stability in mouse liver microsomes assessed as hepatic extraction ratio preincubated for 5 mins followed by NADPH addition and measured upto 45 mins by LC-MS analysis; assay type: ADME, Microsome; conditions: time < 50 min
Influenza A virus [15] = assay: Antiviral activity against Influenza A virus H1N1 (A/Puerto Rico/8/34) infected in MDCK cells assessed as reduction in virus-induced cytopathic effect incubated for 48 hrs by CCK8 assay; assay type: functional, organism-based
Influenza A virus [16] = assay: Inhibition of Influenza A virus RdRp activity assessed as reduction in Fluc/Rluc ratio at 0.1 to 10 uM; conditions: dose 0.1-10 µM
Influenza A virus [17] = assay: Antiviral activity against Influenza A virus H1N1 (A/Puerto Rico/8/34) infected in MDCK cells assessed as reduction in NP protein level at 1 uM in presence of 1000 uM rNTP by Western blot analysis; assay type: functional, organism-based

In the case of `NC12CC3CC(CC(C3)C1)C2`, the Activity (Influenza A virus [1]) is reported as “Active” and the Activity (Influenza A virus [2]) is reported as “Active”.
Molecule `O=C(c1ccc(F)cc1)C1CCN(CCn2c(=O)[nH]c3ccccc3c2=O)CC1` [KETANSERIN] has a half-life [3] of 18.6 min, a half-life [4] of 48.5 min and a CLhep predicted [5] of 21.6 mL/min/kg. For the same molecule, the CLint scaled [6] was 293 mL/min/kg, the hepatic extraction ratio at 0.75 h [7] was 69.7% and the half-life [8] was 37.2 min. The CLhep predicted [9] was 14.3 mL/min/kg, the CLint scaled [10] was 46.7 mL/min/kg and the hepatic extraction ratio at 0.75 h [11] was 69.3%. The CLhep predicted [12] was 68.8 mL/min/kg, the CLint scaled [13] was 71.2 mL/min/kg and the hepatic extraction ratio at 0.75 h [14] was 76.5%.
For `CC(=O)N[C@H]1[C@H]([C@H](O)[C@H](O)CO)OC(C(=O)O)=C[C@@H]1NC(=N)N` [ZANAMIVIR], the EC50 (Influenza A virus [15]) was 65 nM, the inhibition (Influenza A virus [16]) was “inactive” and the Activity (Influenza A virus [17]) was “Active”.
